# Source: US9695155B2, “Herbicidal substituted pyrimidinyloxy benzene compounds” (E. I. DU PONT DE NEMOURS AND COMPANY, priority 2013, dated 2017)
# Legend:
# [1] = tested on: barnyardgrass; assay: Test B flooded paddy test; format: in vivo, Echinochloa crus-galli; conditions: Echinochloa crus-galli; Flood, 250 g ai/ha; 0 to 100 scale where 0 is no effect and 100 is complete control; read-out: Plant response rating, Barnyardgrass
# Method in brief: (§1)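 Flooded to 3 cm at the 2-leaf stage, pots received compound through the paddy water and were kept at that depth under greenhouse conditions. After 13–15 days, effect was rated by eye relative to controls, 0 = none and 100 = complete control.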
# [2] = tested on: lambsquarters; assay: Test C postemergence; format: in vivo, Chenopodium album; conditions: Chenopodium album, post-emergence
# Method in brief: (§2)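 Whole-plant greenhouse test with surfactant-containing solvent formulation, applied preemergence to sown loam–sand pots or postemergence to 2–18 cm plants. Scored by eye 13 to 15 days on, 0–100 scale.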
# [3] = tested on: pigweed; assay: Test C preemergence; format: in vivo, Amaranthus retroflexus; conditions: Amaranthus retroflexus, pre-emergence
# Method in brief: as §2
# [4] = tested on: chickweed; assay: Test C postemergence; format: in vivo, Stellaria media; conditions: Stellaria media, post-emergence
# Method in brief: as §2
# [5] = tested on: giant foxtail; assay: Test C postemergence; format: in vivo, Setaria faberii; conditions: Setaria faberi, post-emergence
# Method in brief: as §2
# [6] = tested on: corn; assay: Test C postemergence; format: in vivo, Zea mays; conditions: Zea mays, post-emergence
# Method in brief: as §2
# [7] = tested on: waterhemp; assay: Test C postemergence; format: in vivo, Amaranthus rudis; conditions: Amaranthus tuberculatus, post-emergence
# Method in brief: as §2
# [8] = tested on: large (Lg) crabgrass; assay: Test C preemergence; format: in vivo, Digitaria sanguinalis; conditions: Digitaria sanguinalis, pre-emergence
# Method in brief: as §2
# [9] = tested on: corn; assay: Test A preemergence; format: in vivo, Zea mays; conditions: Zea mays, pre-emergence, 240 h
# Method in brief: (§3)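 Pre- and postemergence greenhouse screen. Soil: loam + sand. Spray carrier: solvent mixture, non-phytotoxic, with surfactant. Post timing at 1–2 leaves, height 2–10 cm. Readout: visual injury on a 0–100 scale roughly 10 days after application, untreated plants as reference.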
# [10] = tested on: large (Lg) crabgrass; assay: Test A postemergence; format: in vivo, Digitaria sanguinalis; conditions: Digitaria sanguinalis, post-emergence, 240 h
# Method in brief: as §3
# [11] = tested on: barnyardgrass; assay: Test C postemergence; format: in vivo, Echinochloa crus-galli; conditions: Echinochloa crus-galli, post-emergence
# Method in brief: as §2
# [12] = tested on: sedge, umbrella; assay: Test B flooded paddy test; format: in vivo, Cyperus difformis; conditions: Cyperus difformis, Flood, 250 g ai/ha; 0 to 100 scale where 0 is no effect and 100 is complete control; read-out: Plant response rating, Sedge, Umbrella
# Method in brief: as §1
# [13] = tested on: wheat; assay: Test A preemergence; format: in vivo, Triticum aestivum
# Method in brief: as §3
# [14] = tested on: wheat, winter; assay: Test C postemergence; format: in vivo, Triticum aestivum; conditions: Triticum aestivum, post-emergence
# Method in brief: as §2
# [15] = tested on: large (Lg) crabgrass; assay: Test C postemergence; format: in vivo, Digitaria sanguinalis; conditions: Digitaria sanguinalis, post-emergence
# Method in brief: as §2
# [16] = 125 g ai/ha, 0 to 100 scale where 0 is no effect and 100 is complete control
structure (smiles),measurement,setting,value
"N#Cc1cccc(Oc2ncc(Br)cn2)c1-n1cc(C(F)(F)F)cn1 [Compound 59, 3-[(5-bromo-2-pyrimidinyl)oxy]-2-[4-(trifluoromethyl)-1H-pyrazol-1-yl]benzonitrile]",pest or weed control at 250 g/ha,[1],40%
same,pest or weed control at 125 g/ha,"[2]; 125 g ai/ha, postemergence, read-out: Plant response rating (0 to 100), Lambsquarters",90%
same,pest or weed control at 250 g/ha,"[2]; 250 g ai/ha, postemergence, read-out: Plant response rating (0 to 100), Lambsquarters",90%
same,pest or weed control at 31 g/ha,"[2]; Postemergence, 31 g ai/ha, scale 0 to 100 (0 no effect, 100 complete control), 13 to 15 days, read-out: Plant response rating, Lambsquarters",70%
same,pest or weed control at 62 g/ha,"[2]; Postemergence, 62 g ai/ha, scale 0 to 100 (0 no effect, 100 complete control), read-out: Plant response rating, Lambsquarters",80%
same,pest or weed control at 62 g/ha,"[3]; 62 g ai/ha, preemergence, scale 0 (no effect) to 100 (complete control), read-out: Pigweed plant response rating",100%
same,pest or weed control at 125 g/ha,"[3]; 125 g ai/ha, preemergence, scale 0 (no effect) to 100 (complete control), read-out: Pigweed plant response rating",100%
same,pest or weed control at 250 g/ha,"[3]; 250 g ai/ha, preemergence, scale 0 (no effect) to 100 (complete control), read-out: Pigweed plant response rating",100%
same,pest or weed control at 31 g/ha,"[3]; Preemergence, 31 g ai/ha, scale 0 to 100, 0 no effect, 100 complete control, read-out: Plant response rating, Pigweed",100%
same,pest or weed control at 125 g/ha,"[4]; 125 g ai/ha, postemergence, read-out: Plant response rating (0 to 100), Chickweed",80%
same,pest or weed control at 250 g/ha,"[4]; 250 g ai/ha, postemergence, read-out: Plant response rating (0 to 100), Chickweed",98%
same,pest or weed control at 31 g/ha,"[4]; Postemergence, 31 g ai/ha, scale 0 to 100 (0 no effect, 100 complete control), 13 to 15 days, read-out: Plant response rating, Chickweed",40%
same,pest or weed control at 62 g/ha,"[4]; Postemergence, 62 g ai/ha, scale 0 to 100 (0 no effect, 100 complete control), read-out: Plant response rating, Chickweed",70%
same,pest or weed control at 125 g/ha,"[5]; 125 g ai/ha, postemergence, read-out: Plant response rating (0 to 100), Foxtail, Giant",45%
same,pest or weed control at 250 g/ha,"[5]; 250 g ai/ha, postemergence, read-out: Plant response rating (0 to 100), Foxtail, Giant",90%
same,pest or weed control at 31 g/ha,"[5]; Postemergence, 31 g ai/ha, scale 0 to 100 (0 no effect, 100 complete control), 13 to 15 days, read-out: Plant response rating, Foxtail, Giant",10%
same,pest or weed control at 62 g/ha,"[5]; Postemergence, 62 g ai/ha, scale 0 to 100 (0 no effect, 100 complete control), read-out: Plant response rating, Foxtail, Giant",45%
same,plant injury at 125 g/ha,"[6]; 125 g ai/ha, postemergence, read-out: Plant response rating (0 to 100), Corn",15%
same,plant injury at 250 g/ha,"[6]; 250 g ai/ha, postemergence, read-out: Plant response rating (0 to 100), Corn",20%
same,"Corn plant response rating (crop injury, 0 = no effect, 100 = complete kill) at 31 g/ha","[6]; Postemergence, 31 g ai/ha, scale 0 to 100 (0 no effect, 100 complete control), 13 to 15 days",10%
same,"Corn plant response rating (crop injury, 0 = no effect, 100 = complete kill) at 62 g/ha","[6]; Postemergence, 62 g ai/ha, scale 0 to 100 (0 no effect, 100 complete control)",15%
same,pest or weed control at 125 g/ha,"[7]; 125 g ai/ha, postemergence, read-out: Plant response rating (0 to 100), Waterhemp",90%
same,pest or weed control at 250 g/ha,"[7]; 250 g ai/ha, postemergence, read-out: Plant response rating (0 to 100), Waterhemp",98%
same,pest or weed control at 31 g/ha,"[7]; Postemergence, 31 g ai/ha, scale 0 to 100 (0 no effect, 100 complete control), 13 to 15 days, read-out: Plant response rating, Waterhemp",85%
same,pest or weed control at 62 g/ha,"[7]; Postemergence, 62 g ai/ha, scale 0 to 100 (0 no effect, 100 complete control), read-out: Plant response rating, Waterhemp",85%
same,pest or weed control at 62 g/ha,"[8]; 62 g ai/ha, preemergence, scale 0 (no effect) to 100 (complete control), read-out: Crabgrass, Large plant response rating",100%
same,pest or weed control at 125 g/ha,"[8]; 125 g ai/ha, preemergence, scale 0 (no effect) to 100 (complete control), read-out: Crabgrass, Large plant response rating",100%
same,pest or weed control at 250 g/ha,"[8]; 250 g ai/ha, preemergence, scale 0 (no effect) to 100 (complete control), read-out: Crabgrass, Large plant response rating",100%
same,pest or weed control at 31 g/ha,"[8]; Preemergence, 31 g ai/ha, scale 0 to 100, 0 no effect, 100 complete control, read-out: Plant response rating, Crabgrass, Large",100%
same,"Corn plant response rating (crop injury, 0 = no effect, 100 = complete kill) at 125 g/ha",[9]; [16],20%
same,plant injury at 500 g/ha,"[9]; 500 g ai/ha, 0 to 100 scale, 0 no effect, 100 complete control, approx. 10 days, read-out: Corn plant response rating",30%
same,pest or weed control at 125 g/ha,"[10]; 125 g ai/ha, 0 to 100 scale where 0 is no effect and 100 is complete control, read-out: Plant response rating, Crabgrass, Large",100%
same,pest or weed control at 500 g/ha,"[10]; 500 g ai/ha, 0 to 100 scale, 0 no effect, 100 complete control, read-out: Plant response rating Crabgrass, Large",100%
same,pest or weed control at 125 g/ha,"[11]; 125 g ai/ha, postemergence, read-out: Plant response rating (0 to 100), Barnyardgrass",10%
same,pest or weed control at 250 g/ha,"[11]; 250 g ai/ha, postemergence, read-out: Plant response rating (0 to 100), Barnyardgrass",25%
same,pest or weed control at 31 g/ha,"[11]; Postemergence, 31 g ai/ha, scale 0 to 100 (0 no effect, 100 complete control), 13 to 15 days, read-out: Plant response rating, Barnyardgrass",5%
same,pest or weed control at 62 g/ha,"[11]; Postemergence, 62 g ai/ha, scale 0 to 100 (0 no effect, 100 complete control), read-out: Plant response rating, Barnyardgrass",5%
same,pest or weed control at 250 g/ha,[12],90%
same,"Plant response rating, Wheat",[13]; [16],20
same,plant injury at 500 g/ha,"[13]; Triticum aestivum, pre-emergence, 240 h, 500 g ai/ha, 0 to 100 scale, 0 no effect, 100 complete control, approx. 10 days, read-out: Wheat plant response rating",40%
same,plant injury at 125 g/ha,"[14]; 125 g ai/ha, postemergence, read-out: Plant response rating (0 to 100), Wheat",20%
same,plant injury at 250 g/ha,"[14]; 250 g ai/ha, postemergence, read-out: Plant response rating (0 to 100), Wheat",20%
same,plant injury at 31 g/ha,"[14]; Postemergence, 31 g ai/ha, scale 0 to 100 (0 no effect, 100 complete control), 13 to 15 days, read-out: Plant response rating, Wheat",5%
same,plant injury at 62 g/ha,"[14]; Postemergence, 62 g ai/ha, scale 0 to 100 (0 no effect, 100 complete control), read-out: Plant response rating, Wheat",5%
same,pest or weed control at 125 g/ha,"[15]; 125 g ai/ha, postemergence, read-out: Plant response rating (0 to 100), Crabgrass, Large",30%
same,pest or weed control at 250 g/ha,"[15]; 250 g ai/ha, postemergence, read-out: Plant response rating (0 to 100), Crabgrass, Large",40%
same,pest or weed control at 31 g/ha,"[15]; Postemergence, 31 g ai/ha, scale 0 to 100 (0 no effect, 100 complete control), 13 to 15 days, read-out: Plant response rating, Crabgrass, Large",10%
same,pest or weed control at 62 g/ha,"[15]; Postemergence, 62 g ai/ha, scale 0 to 100 (0 no effect, 100 complete control), read-out: Plant response rating, Crabgrass, Large",10%
